# Assay results published in US9399032B2, “Methods and compositions for treating degenerative and ischemic disorders” (The General Hospital Corporation, priority 2009, dated 2016).
# Counter-ions that a name gives are not always drawn.
# What was measured:
# [1] = test system: primary cardiomyocytes isolated from rat heart; assay: Respiration in primary cardiomyocytes; format: cell-based; conditions: 20 min exposure
# Experimental: Cardiomyocytes were exposed to the indicated concentration of meclizine for 20 min followed by oxygen measurement in the respiration chamber. Typical respiration traces are shown.
# Meclizine was confirmed to shift a cell's relative reliance on OXPHOS versus glycolysis by whole cell bioenergetic kinetic assays. […] This was true in primary cardiomyocytes isolated from rat heart (FIG. 3K) and primary cortical neurons isolated from mouse embryos (FIG. 3L). Cardiomyocytes were exposed to the indicated concentration of meclizine for 20 min followed by oxygen measurement in a respiration chamber. Oxygen consumption rate (OCR) measurements were made following meclizine (5 and 10 μM) or antimycin (1 μM) addition at time 0 (min) in mouse primary cortical neurons obtained from day E14-15 embryos.
# [2] = test system: MCH58 fibroblasts; assay: Global gene expression profile and quantitative RT-PCR; format: cell-based, human
# Experimental: Next, a global gene expression profile was performed on fibroblasts following a six hour meclizine treatment (i.e., a time point having maximal OXPHOS inhibition). Oligonucleotide microarray experiments were conducted as follows. Total RNA was extracted from ˜2 million MCH58 cells with RNeasy mini kit (Qiagen). Cells were either grown in 10 mM glucose or 10 mM galactose for 3 passages and for the drug treated samples, and treated with either 0.1% DMSO or 50 μM meclizine for 6 hours. 10 ug of RNA was used to synthesize cDNA with a T7-(dT)24 primer and the SuperScript one-cycle cDNA synthesis kit (Affymetrix). cRNA labeling, hybridization to human U133 plus 2.0 oligonucleotide array (Affymetrix, CA), washing and staining were performed as recommended by Affymetrix. For each condition, 3 biological replicates were used for the total of 6 arrays. GLS expression was confirmed by quantitative RT-PCR using TaqMan assay (Applied Biosystems).
# [3] = test system: caspase 3 and caspase 7; assay: Western blot of cleaved caspase 3 and 7 after serum withdrawal; format: cell-based, murine; conditions: 50 μM, up to 24 hours after serum withdrawal
# Experimental: Western blot analysis was performed as follows. Murine STH^Q111/111 striatal cells expressing mutant huntingtin protein were grown to ˜75% confluency in 15 cm cell culture plate. Then serum containing medium was replaced with serum free media with either 0.1% DMSO or 50 μM meclizine and total protein was extracted at 0, 4, 10 and 24 hours post serum withdrawal and drug treatment in cell lysis buffer (Cell Signaling Cat No. 9803).
# Protein concentration was determined using BCA protein assay kit (Thermo Scientific Cat No. 23227). SDS PAGE was performed using NuPAGE 4-12% Bis-Tris gel from Invitrogen (NP0321). 15 μg of protein was loaded per lane. Western blotting was performed as per the standard procedures. Cleaved Caspase 3 (Cat. No. 9661), Cleaved Caspase 7 (Cat. No. 9491), p-ERK ([…]; Cat No. 9803), and AKT (Cat. No. 9803) antibodies were obtained from Cell Signaling. β-Actin antibody was purchased from Sigma (A1978).
# [4] = test system: C2C12 myotubes; assay: [3H]-2-deoxyglucose uptake; format: cell-based; conditions: 50 micromolar, four hours
# Experimental: Fully differentiated C2C12 myotubes were subjected to a glucose uptake protocol, as follows. Briefly, C2C12 myotube cells were incubated for four hours in serum-free media containing either 0.1% DMSO as a control, 50 micromolar meclizine, 50 micromolar S-meclizine, or 2 mM metformin. Cells were subsequently incubated for thirty minutes in serum and glucose free buffer and then transitioned to buffer containing [3H]-2-deoxyglucose for five minutes. After multiple wash steps, cells were lysed and the lysate was subjected to scintillation counting to quantify uptake. Data were prepared as raw counts per minute, which is proportional to 2-deoxyglucose uptake.
# [5] = Blood glucose levels in R6 mice; format: in vivo
structure (smiles),measurement,setting,value
"Cc1cccc(CN2CCN(C(c3ccccc3)c3ccc(Cl)cc3)CC2)c1 (racemic) [Meclizine, meclizine hydrochloride]",respiration in primary cardiomyocytes,[1],inhibits respiration
same,HK2 expression fold change,"[2]; 50 μM, 6 hours",1.5 fold
same,TXNIP expression downregulated,"[2]; 50 μM, 6 hours",35%
same,GLS expression downregulated (microarray),"[2]; 50 μM, 6 hours, relative to vehicle",~40%
same,reduction in GLS transcript by quantitative real-time PCR,[2]; 6 hours of treatment,50%
same,serum deprivation-induced activation of caspase 3 and caspase 7,[3],prevented
same,basal glucose uptake,[4],promoted increased basal glucose uptake
same,blood glucose levels,[5],reduces blood glucose levels
